Results taken from PubChem BioAssay AID1388 (Sanford-Burnham Center for Chemical Genomics, 2008).
Active and inactive are the calls of the source.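 How the source made its calls: active means no detectable phosphorylated eIF2 alpha band on the immunoblot of stressed cell lysates; inactive means phospho eIF2 alpha band still visible on the blot.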

biological target: Eukaryotic translation initiation factor 2 subunit 1 (Rattus norvegicus) (UniProt P68101); experiment: blockers of stress-induced eIF2α phosphorylation – cell-based, thapsigargin, Western blot, mechanism study for ER stress cell death project, late-stage follow-up (AID 1388); settings: CSM14.1 cells, phospho-eIF2a Western blot
Sequence (P68101 whole entry, looked up): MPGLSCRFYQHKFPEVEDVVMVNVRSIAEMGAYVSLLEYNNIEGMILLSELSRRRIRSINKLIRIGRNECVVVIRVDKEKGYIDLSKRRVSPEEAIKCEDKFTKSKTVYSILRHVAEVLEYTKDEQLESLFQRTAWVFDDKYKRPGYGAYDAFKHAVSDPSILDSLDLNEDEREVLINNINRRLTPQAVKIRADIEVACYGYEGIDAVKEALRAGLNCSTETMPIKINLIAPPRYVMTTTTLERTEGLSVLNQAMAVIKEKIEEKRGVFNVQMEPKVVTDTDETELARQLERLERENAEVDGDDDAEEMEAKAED

| Structure (SMILES) | outcome |
| --- | --- |
| CSc1ccc(C2Nc3ccccc3NC3=C2C(=O)CC(c2ccccc2)C3)cc1 (stereo unspecified) | inactive |
| COc1ccc(C2CC(=O)C3=C(C2)Nc2ccccc2NC3c2cccc(Br)c2)cc1OC (stereo unspecified) | inactive |
| COc1ccc(C2CC(=O)C3=C(C2)Nc2ccccc2NC3c2ccccc2C(F)(F)F)cc1OC (stereo unspecified) | inactive |
| CCOc1cc(C2Nc3ccccc3NC3=C2C(=O)CC(c2ccc(OC)cc2)C3)cc(Cl)c1O (stereo unspecified) | inactive |
| CC1(C)CC(=O)C2=C(C1)Nc1ccccc1NC2c1ccc(-c2ccccc2)cc1 (stereo unspecified) | inactive |
| CCCOc1ccc(C2Nc3ccccc3NC3=C2C(=O)CC(c2ccc(OC)c(OC)c2)C3)cc1 (stereo unspecified) | inactive |
| COc1ccc(C2CC(=O)C3=C(C2)Nc2ccccc2NC3c2cc(C)ccc2C)cc1 (stereo unspecified) | inactive |
| O=C1CC(c2ccccc2)CC2=C1C(c1c(F)cccc1Cl)Nc1ccccc1N2 (stereo unspecified) | inactive |
| COc1ccc(C2CC(=O)C3=C(C2)Nc2ccccc2NC3c2cccc(C(F)(F)F)c2)cc1OC (stereo unspecified) | inactive |
| CCOc1cccc(C2Nc3ccccc3NC3=C2C(=O)CC(c2ccc(OC)cc2)C3)c1 (stereo unspecified) | inactive |
| COc1ccc(C2CC(=O)C3=C(C2)Nc2ccccc2NC3c2cccc(Oc3ccccc3)c2)cc1OC (stereo unspecified) | inactive |
